{
  "source": "patent US20240197809A1",
  "about": "“HAIR CARE COMPOSITION AND BANANA FLOWER EXTRACT AND METHOD FOR HAIR CARE USING THE SAME” (TCI CO., LTD., priority 2022, published 2024)",
  "key": {"[1]": {"tested_on": "dihydrotestosterone content in human prostate cell LNcap", "experiment": "Test of banana flower extract to inhibit dihydrotestosterone (DHT ELISA in testosterone-treated LNcap cells)", "type": "cell-based", "conditions": "testosterone 2 h, blank group 32.8 pg/mL", "protocol": "A significant increase in the production of dihydrotestosterone (DHT) in hair follicles of the forehead can be observed in young bald female patients. If the dihydrotestosterone can be inhibited, the effect of caring hair follicles and promoting hair growth is achieved. In this test, whether the content of the dihydrotestosterone in human prostate cells treated with different concentrations of banana extract was reduced or not was measured, and a common therapeutic drug Propecia for alopecia androgenetica was used as control.\nCell line: Human prostate cell LNcap (purchased from BCRC; access number Cat. 60088), hereinafter referred to as LNcap cell.\nCell medium (human prostate cell LNcap cell medium): RPMI 1640 Medium (RPMI), powder (Gibco; Cat. 31800-022), 10% fetal bovine serum (FBS) (Gibco; Cat. 10437-028) and 1% Antibiotic-Antimycotic (AA) (Gibco; Cat. 15240-062).\nReagent: 1×DPBS (Gibco, Cat. 14200-075), trypsin (1× Trypsin-EDTA, purchased from Thermo, Cat. FNN0011), Propecia (also referred to as Finasteride, purchased from Sigma; Cat. F1293), Testosterone (purchased from Sigma; Cat. T1500), and cell lysis buffer (purchased from RIPA Lysis and Extraction Buffer (Thermo #89900).\nDetection kits: dihydrotestosterone ELISA Reagent Detection Kits (USCN; CEA443Ge).\nFirstly, LNcap cells were implanted into a 6-well cell culture plate in a density of 1×10^5 LNcap cells and cultured at 37° C. in a 5% carbon dioxide incubator for 24 h.\nThe cultured LNcap cells were divided into an experimental group A, an experimental group B, a control group and a blank group. […]\nNext, a 200 μL 1× cell lysis buffer was added into the tube to lyse the LNcap cells. […] Finally, the dihydrotestosterone content in the LNcap cells was detected by using a dihydrotestosterone ELISA kit. […]\n(§1) Here, whether two groups compared have a statistically significant difference or not is analyzed with a single-tailed student t-test to obtain their p-values. […]"}, "[2]": {"tested_on": "Human Follicle Dermal Papilla Cells (HFDPC)", "experiment": "Hair follicle cell proliferation test (Click-iT EdU flow cytometry)", "type": "cell-based", "from_the_text": "Hair follicle cells are the foundation of hair. In hair follicle cells at the growth phase, cells in hair follicle bulbs of the hair root can divide once a day. If the proliferation of the hair follicle cells is promoted, the effect of promoting hair growth can be achieved. In this test, the proliferation of human follicle dermal papilla cells treated with the compound I was examined.\nCell line: Human Follicle Dermal Papilla Cells (HFDPC) (purchased from PromoCell; Cat. C-12071), hereinafter referred to as HFDPC cells.\nDetection kit: Cell proliferation ELISA reagent detection kit (Click-iT™ Plus EdU Flow Cytometry Assay Kits-Alexa Fluor™ 488 picolyl azide, 50 tests, brand Invitrogen, model C10632), containing composition C (Dimethyl sulfoxide DMSO), composition D (Click-iT™ fixative), composition E (Click-iT™ saponin-based permeabilization and wash reagent), composition F (Copper protectant), and composition G (Click-iT™ EdU buffer additive).\nFirstly. […]\nThe supernatant was removed. […] Finally, a fluorescence signal was measured with a flow cytometer (excitation light: 488 nm; scattered light: 527 nm and 590 nm).\nas §1"}},
  "data": [
    {"smiles": "CC(C)(C)NC(=O)[C@H]1CC[C@H]2[C@@H]3CC[C@H]4NC(=O)C=C[C@]4(C)[C@H]3CC[C@]12C", "note": "[Propecia, Finasteride, reference compound]", "values": [
      {"measurement": "dihydrotestosterone content", "setting": "[1]; 20 μg/mL (control group)", "result": 17.16, "unit": "pg/mL"}
    ]},
    {"smiles": "O=C(O)CC(O)(CC(=O)O)C(=O)NCCc1ccc(O)c(O)c1", "note": "[compound I, N-β-citroyldopamine]", "values": [
      {"measurement": "number of the HFDPC cells (blank group = 100%)", "setting": "[2]; 10 μg/mL, Example 3, FIG. 2", "result": 118.81, "unit": "%"},
      {"measurement": "dihydrotestosterone content", "setting": "[1]; 5 μg/mL (experimental group B)", "result": 25.20, "unit": "pg/mL"},
      {"measurement": "dihydrotestosterone content", "setting": "[1]; 10 μg/mL (experimental group A)", "result": 25.03, "unit": "pg/mL"}
    ]},
    {"smiles": "CC(=O)OCC1O[C@H](O[C@]2(CO)O[C@H](COC(C)=O)C(O)C2OC(=O)/C=C/c2ccc(O)cc2)C(OC(C)=O)C(OC(C)=O)[C@@H]1O", "note": "(stereo partly drawn) [compound II, 6,2′,3′,6′-O-tetraacetyl-3-O-trans-p-coumaroylsucrose]", "values": [
      {"measurement": "number of the HFDPC cells (blank group = 100%)", "setting": "[2]; 100 μM, Example 4, FIG. 3", "result": 112.54, "unit": "%"}
    ]}
  ]
}
